From PubChem BioAssay (NCI)
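Cells were grown in 96-well plates and exposed to each compound for 48 hours at five concentrations; endpoints were interpolated linearly between bracketing concentrations, or set to the highest concentration if not reached. Here, GI50 denotes the concentration required for 50% inhibition of growth. TGI denotes the concentration required for complete inhibition of growth.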

Legend:
Experiment in all cases: growth of human tumour cells (NCI), 48 h
UO-31 renal = tested on: UO-31 renal
OVCAR-3 ovarian = tested on: OVCAR-3 ovarian
M14 melanoma = tested on: M14 melanoma
UACC-257 melanoma = tested on: UACC-257 melanoma
LOX IMVI melanoma = tested on: LOX IMVI melanoma
DU-145 prostate = tested on: DU-145 prostate
K-562 leukemia = tested on: K-562 leukemia
COLO 205 colon = tested on: COLO 205 colon
TK-10 renal = tested on: TK-10 renal
MCF7 breast = tested on: MCF7 breast
SNB-75 CNS = tested on: SNB-75 CNS
HCC-2998 colon = tested on: HCC-2998 colon
SN12C renal = tested on: SN12C renal
SK-MEL-5 melanoma = tested on: SK-MEL-5 melanoma
SF-539 CNS = tested on: SF-539 CNS
BT-549 breast = tested on: BT-549 breast
HT29 colon = tested on: HT29 colon
UACC-62 melanoma = tested on: UACC-62 melanoma
786-0 renal = tested on: 786-0 renal
HOP-92 NSCLC = tested on: HOP-92 NSCLC
OVCAR-5 ovarian = tested on: OVCAR-5 ovarian
T-47D breast = tested on: T-47D breast
NCI-H226 lung = tested on: NCI-H226 lung
HCT-116 colon = tested on: HCT-116 colon
EKVX NSCLC = tested on: EKVX NSCLC
MDA-MB-435 = tested on: MDA-MB-435
HL-60(TB) leukemia = tested on: HL-60(TB) leukemia
NCI-H23 lung = tested on: NCI-H23 lung
SF-295 CNS = tested on: SF-295 CNS
U251 CNS = tested on: U251 CNS
NCI-H522 lung = tested on: NCI-H522 lung
MALME-3M melanoma = tested on: MALME-3M melanoma
ACHN renal = tested on: ACHN renal
SR leukemia = tested on: SR leukemia
A549 NSCLC = tested on: A549 NSCLC
HCT-15 colon = tested on: HCT-15 colon
SF-268 CNS = tested on: SF-268 CNS
KM12 colon = tested on: KM12 colon
CAKI-1 renal = tested on: CAKI-1 renal
SW-620 colon = tested on: SW-620 colon
A498 renal = tested on: A498 renal
HS 578T breast = tested on: HS 578T breast
RXF 393 renal = tested on: RXF 393 renal
IGROV1 ovarian = tested on: IGROV1 ovarian
NCI-H460 lung = tested on: NCI-H460 lung
CCRF-CEM leukemia = tested on: CCRF-CEM leukemia
HOP-62 NSCLC = tested on: HOP-62 NSCLC
SK-MEL-2 melanoma = tested on: SK-MEL-2 melanoma
MOLT-4 leukemia = tested on: MOLT-4 leukemia
NCI/ADR-RES ovarian = tested on: NCI/ADR-RES ovarian
PC-3 prostate = tested on: PC-3 prostate
MDA-MB-231 breast = tested on: MDA-MB-231 breast
SNB-19 CNS = tested on: SNB-19 CNS
OVCAR-4 ovarian = tested on: OVCAR-4 ovarian
OVCAR-8 ovarian = tested on: OVCAR-8 ovarian
SK-MEL-28 melanoma = tested on: SK-MEL-28 melanoma
RPMI-8226 leukemia = tested on: RPMI-8226 leukemia

`O=c1oc2ccc(I)cc2c(=O)n1-c1ccc(Cl)cc1F` showed a GI50 (UO-31 renal) of 301 nM, a TGI (UO-31 renal) of 3240 nM and a GI50 (OVCAR-3 ovarian) of 974 nM. It also gave a TGI (OVCAR-3 ovarian) of 12000 nM, a GI50 (M14 melanoma) of 598 nM and a TGI (M14 melanoma) of 7870 nM. It also gave a GI50 (UACC-257 melanoma) of 526 nM, a TGI (UACC-257 melanoma) of 6450 nM and a GI50 (LOX IMVI melanoma) of 1330 nM. It also gave a TGI (LOX IMVI melanoma) of 11400 nM, a GI50 (DU-145 prostate) of 2280 nM and a TGI (DU-145 prostate) of 21700 nM. The GI50 (K-562 leukemia) was 658 nM, the TGI (K-562 leukemia) was > 100000 nM and the GI50 (COLO 205 colon) was 4960 nM. For the same compound, the TGI (COLO 205 colon) was 19900 nM, the GI50 (TK-10 renal) was 4090 nM and the TGI (TK-10 renal) was 16900 nM. The GI50 (MCF7 breast) was 2360 nM, the TGI (MCF7 breast) was 36500 nM and the GI50 (SNB-75 CNS) was 500 nM. For the same compound, the TGI (SNB-75 CNS) was 2970 nM, the GI50 (HCC-2998 colon) was 3180 nM and the TGI (HCC-2998 colon) was 12900 nM. It also gave a GI50 (SN12C renal) of 800 nM, a TGI (SN12C renal) of 8770 nM and a GI50 (SK-MEL-5 melanoma) of 751 nM. The TGI (SK-MEL-5 melanoma) was 2190 nM, the GI50 (SF-539 CNS) was 988 nM and the TGI (SF-539 CNS) was 6710 nM. The GI50 (BT-549 breast) was 1030 nM, the TGI (BT-549 breast) was 3800 nM and the GI50 (HT29 colon) was 3400 nM. For the same compound, the TGI (HT29 colon) was 18700 nM, the GI50 (UACC-62 melanoma) was 419 nM and the TGI (UACC-62 melanoma) was 2280 nM. It also gave a GI50 (786-0 renal) of 3140 nM, a TGI (786-0 renal) of 10500 nM and a GI50 (HOP-92 NSCLC) of 181 nM. The TGI (HOP-92 NSCLC) was 726 nM, the GI50 (OVCAR-5 ovarian) was 3960 nM and the TGI (OVCAR-5 ovarian) was 74100 nM. It also gave a GI50 (T-47D breast) of 1260 nM, a TGI (T-47D breast) of 6440 nM and a GI50 (NCI-H226 lung) of 1960 nM. The TGI (NCI-H226 lung) was 8530 nM, the GI50 (HCT-116 colon) was 1210 nM and the TGI (HCT-116 colon) was 3860 nM. For the same compound, the GI50 (EKVX NSCLC) was 1530 nM, the TGI (EKVX NSCLC) was 8770 nM and the GI50 (MDA-MB-435) was 1900 nM. The TGI (MDA-MB-435) was 10300 nM, the GI50 (HL-60(TB) leukemia) was 1370 nM and the TGI (HL-60(TB) leukemia) was 7510 nM. The GI50 (NCI-H23 lung) was 1610 nM, the TGI (NCI-H23 lung) was 7680 nM and the GI50 (SF-295 CNS) was 1800 nM. It also gave a TGI (SF-295 CNS) of 3690 nM, a GI50 (U251 CNS) of 1510 nM and a TGI (U251 CNS) of 24500 nM. The GI50 (NCI-H522 lung) was 800 nM, the TGI (NCI-H522 lung) was 9720 nM and the GI50 (MALME-3M melanoma) was 516 nM. The TGI (MALME-3M melanoma) was 3490 nM, the GI50 (ACHN renal) was 1620 nM and the TGI (ACHN renal) was 12800 nM. The GI50 (SR leukemia) was 1130 nM, the TGI (SR leukemia) was > 100000 nM and the GI50 (A549 NSCLC) was 2870 nM. The TGI (A549 NSCLC) was > 100000 nM, the GI50 (HCT-15 colon) was 2370 nM and the TGI (HCT-15 colon) was 12600 nM. It also gave a GI50 (SF-268 CNS) of 1510 nM, a TGI (SF-268 CNS) of 16700 nM and a GI50 (KM12 colon) of 2220 nM. The TGI (KM12 colon) was 5390 nM, the GI50 (CAKI-1 renal) was 1090 nM and the TGI (CAKI-1 renal) was 5610 nM. For the same compound, the GI50 (SW-620 colon) was 2020 nM, the TGI (SW-620 colon) was 88200 nM and the GI50 (A498 renal) was 141 nM. For the same compound, the TGI (A498 renal) was 700 nM, the GI50 (HS 578T breast) was 688 nM and the TGI (HS 578T breast) was 8660 nM. For the same compound, the GI50 (RXF 393 renal) was 1440 nM, the TGI (RXF 393 renal) was 5320 nM and the GI50 (IGROV1 ovarian) was 1190 nM. It also gave a TGI (IGROV1 ovarian) of 21100 nM, a GI50 (NCI-H460 lung) of 890 nM and a TGI (NCI-H460 lung) of 13100 nM. The GI50 (CCRF-CEM leukemia) was 2970 nM, the TGI (CCRF-CEM leukemia) was 46600 nM and the GI50 (HOP-62 NSCLC) was 2000 nM. For the same compound, the TGI (HOP-62 NSCLC) was 7420 nM, the GI50 (SK-MEL-2 melanoma) was 582 nM and the TGI (SK-MEL-2 melanoma) was 3430 nM. The GI50 (MOLT-4 leukemia) was 2240 nM, the TGI (MOLT-4 leukemia) was 6810 nM and the GI50 (NCI/ADR-RES ovarian) was 1870 nM. The TGI (NCI/ADR-RES ovarian) was 21700 nM, the GI50 (PC-3 prostate) was 2000 nM and the TGI (PC-3 prostate) was 7110 nM. The GI50 (MDA-MB-231 breast) was 1270 nM, the TGI (MDA-MB-231 breast) was 5710 nM and the GI50 (SNB-19 CNS) was 640 nM. For the same compound, the TGI (SNB-19 CNS) was 58700 nM, the GI50 (OVCAR-4 ovarian) was 1680 nM and the TGI (OVCAR-4 ovarian) was 19000 nM. For the same compound, the GI50 (OVCAR-8 ovarian) was 1660 nM, the TGI (OVCAR-8 ovarian) was 24900 nM and the GI50 (SK-MEL-28 melanoma) was 416 nM. It also gave a TGI (SK-MEL-28 melanoma) of 2980 nM, a GI50 (RPMI-8226 leukemia) of 758 nM and a TGI (RPMI-8226 leukemia) of 6120 nM.
